Each structure is given as a SMILES string. “Also recorded” adds a separate entry of the source.

The subject of assay [1] is C57BL/6J male mice. The assay is described as follows: Mouse forced swim test 24 hr after single administration. The note with it: 3, 10 & 30 mg/kg i.p., 24 hr post-administration. The assay is classed as in vivo. As for the experimental part:
Young adult C57BL/6J male mice (8-9 weeks old at arrival; n=113) were purchased from Charles River (DE). All C57BL/6J mice were housed in groups of 4 per cage. Mice were maintained under controlled conditions (21±2° C., 50±1% humidity, 12/12 h light/dark cycles, lights on at 7 a.m.) with food and water available ad libitum.
Experimental Design: The experimental procedures were in accordance with the European Communities Council Directive (Directive 2010/63 EU into the Polish Directives (Journal of Laws of 2021, item 1331, as amended)) and approved by the Local Ethic Committee in Olsztyn (Approval No. 27/203 from 22 Mar. 2023). […]
Forced Swim Test: After 17 days of acclimatization (11-12 weeks old), all mice were randomly assigned to experimental groups (n=14-15/group). Sample size (n=14 per group) was determined based on G-power calculations using alpha 0.05, t-test and effect size calculation based on mean and SD from vehicle and positive control groups. […] Because little immobility is observed during the first 2 minutes of the FST, only immobility occurring during the last 4 minutes was scored and analyzed. […] All test sessions were recorded using a video camera placed on the side of the cylinder for subsequent behavioral analysis by scorers blinded to the treatment conditions. […]
Data Analysis: Data for each compound have been analyzed separately using the GraphPad Prism 9 statistical software. […]

In assay [2] the target is 5-HT2A receptor (Mus musculus, UniProt P35363). The assay is described as follows: 5-HT2A receptor binding in mouse frontal cortical tissue.
Sequence of 5-HT2A receptor (P35363 whole entry): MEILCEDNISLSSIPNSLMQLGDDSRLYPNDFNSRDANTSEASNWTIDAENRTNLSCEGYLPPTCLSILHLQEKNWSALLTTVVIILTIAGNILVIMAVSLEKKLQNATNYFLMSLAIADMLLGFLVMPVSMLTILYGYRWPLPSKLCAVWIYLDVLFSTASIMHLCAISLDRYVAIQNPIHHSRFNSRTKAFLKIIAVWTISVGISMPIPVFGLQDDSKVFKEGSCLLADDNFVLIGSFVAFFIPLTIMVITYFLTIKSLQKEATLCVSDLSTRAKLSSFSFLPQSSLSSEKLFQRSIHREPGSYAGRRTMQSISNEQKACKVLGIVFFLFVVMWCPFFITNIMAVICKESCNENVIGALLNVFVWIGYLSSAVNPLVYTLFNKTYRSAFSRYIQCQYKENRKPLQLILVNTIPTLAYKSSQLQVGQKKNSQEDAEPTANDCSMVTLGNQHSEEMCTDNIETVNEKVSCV

Consider `COc1ccc(OC)c(CCNCc2cc(C)cc(Cl)c2)c1` [Compound 2-1, N-(3-chloro-5-methylbenzyl)-2-(2,5-dimethoxyphenyl)ethan-1-amine], for which the “immobility time in mouse FST” value in assay [1] is “lack of robust differences; also recorded: Neither compound 2-1 (3, 10 & 30 mg/kg) nor compound 2-2 (3 & 30 mg/kg) showed significant reductions”.
For the compound `COc1ccc(OC)c(CCNCc2cc(C)cc(F)c2)c1` [Compound 2-2, 2-(2,5-dimethoxyphenyl)-N-(3-fluoro-5-methylbenzyl)ethan-1-amine], the IC50 – broadly, the concentration that gives 50% inhibition – in assay [2] came to 20.8 nM. In addition, the affinity in assay [2] (Ki, Mean (Mouse), mouse frontal cortical tissue), expressed as Ki, was 9.6 nM.

Source of the values: patent publication US12343319B2, “Compositions and methods for treatment of diseases and disorders” (Atai Therapeutics Inc., priority 2023, dated 2025).
